Test results reported in US20020177172A1, “RESTORATION OF PLATELET AGGREGATION BY ANTIBODY ADMINISTRATION AFTER GPIIB/IIIA ANTAGONIST TREATMENT” (priority 1996, published 2002).
Values after ≈ are worked out from the molar mass of the structure shown. Counter-ions that a name gives are not always drawn. Square brackets hold non-standard residues; d marks the D form. Peptide text beside a SMILES is read from it. NMeR = CN[C@@H](CCCNC(=N)N)C(=O)O; 3Amb = NCc1cccc(C(=O)O)c1; dAbu = CC[C@@H](N)C(=O)O

Assays:
platelet aggregation [1] = experiment: In vivo platelet aggregation, dogs (ex vivo aggregation response); details: dog, capsule of 10 mg BID for 4 days (15 mg on day 3)
Procedure: Three beagle dogs were therefore infused with compound B while monitoring blood pressure, heart rate, PT (prothrombin time), and aPTT (activated partial thromboplastin time). […] In a second study, a dog was treated with a capsule of 10 mg of compound A, BID for 4 days (15 mg on day 3) prior to antibody testing. […] Four hours after the last oral dose of compound A, a dose of pentobarbitol and the monoclional antibody ([…]-9F7) was infused by a i.v. bolus injection. Each bolus contained a 5-fold molar excess over drug plasma levels (about 50 mg of Mab 9F7). A control dog was given identical amounts of antibody without compound A oral dosing.

[2] = Removal from circulation / elimination half-life; assay type: in vivo; details: for route of removal from circulation: in vivo; for change of elimination half-life with decreased creatinine clearance: renal impairment
platelet aggregation [3] = experiment: IC50 values of antiplatelet compounds (FIG. 1 legend); assay type: cell-based
[4] = Half-life of compound B in guinea pig; assay type: in vivo
[5] = Total and free plasma levels of compound B in dog; assay type: in vivo; details: three bolus infusions of Mab 9F7, FIG. 11
Procedure: In a second study, a dog was treated with a capsule of 10 mg of compound A, BID for 4 days (15 mg on day 3) prior to antibody testing. […] Four hours after the last oral dose of compound A, a dose of pentobarbitol and the monoclional antibody (P187-9F7) was infused by a i.v. bolus injection. Each bolus contained a 5-fold molar excess over drug plasma levels (about 50 mg of Mab 9F7). A control dog was given identical amounts of antibody without compound A oral dosing. Blood samples were collected for aggregation assays at 5, 15, 30 and 60 minutes after each bolus administration of antibody, plasma levels of Mab 9F7, and total and free plasma levels of compound B.
This method involves the extraction of compound B and an internal standard (compound F, shown hereinafter) from acidified dog plasma with a C18 solid phase extraction column. Analysis is by reverse phase high performance liquid chromatography with fluorescence detection. Calibration standards were prepared in human heparinized plasma. Quality control pools were prepared in dog plasma and quantified using the human calibration curve. A linear weighted (1/concentration squared) least squares regression analysis was used to quantify samples. This method was validated with a minimum quantifiable level of 1.00 ng/mL. […]
Removed the samples to be analyzed from the freezer and thawed. […] The filtrate was then analyzed by the method given below. […]

[6] = test system: heparinized human whole blood; experiment: Activated clotting time (ACT) in heparinized human whole blood, Hemochron-8000; assay type: cell-based; details: 1.4 Units/mL heparin; FIG. 1
From the text: This process can be used to calculate a standardized concentration curve for various known concentrations of anti-platelet compounds. The process can also be used to measure activated clotting times for use in calculating the ACT number for the processes of the invention.
A. Blood was drawn from a human volunteer into a syringe containing heparin. The heparin to whole blood ratio was 1:10 such that the final concentration of heparin in the syringe was 1.4 Units/mL.
B. The Hemochron™-8000 was set up to run ACT using the P-215 tubes from the same manufacturer (International Technidyne).
A. A 1 mL sample of the above heparinized blood was admixed and maintained (incubated) with 2.5-10 μl of antagonist compound or saline for 5 minutes at room temperature.
B. The Hemochron™ was started as 400 μl of the test sample was pipetted into the P-215 tube. The tube contents were gently mixed, placed into the Hemochron™ and turned one revolution until the light on the instrument came on.
C. Step B was repeated for the second channel of the instrument within 30 seconds to give an average activated clotting time. […]
The activated clotting time was first measured (in seconds) for control whole blood from each donor containing only 1.4 Units/mL of heparin. The clotting times were then measured as in Example 1 by varying concentrations of antiplatelet compounds B and D in addition to heparin for each donor. […]

[7] = test system: human platelet rich plasma; experiment: Aggregation of human platelet rich plasma; assay type: cell-based; details: read-out: inhibition of aggregation by the compound itself; for inhibition at 0.05 µM: 5×10^−8 M
Procedure: Human platelet rich plasma (“PRP”) was prepared by centrifugation of citrated whole blood at 970×g for 3.5 minutes at room temperature. PRP was carefully removed from red cells and placed in 50 mL conical tubes. Platelet aggregation was measured as an increase in light transmission in an aggregometer (Bio/Data model PAP-4, Horsham, Pa.) using ADP (20 μM) or collagen (4 μg/mL) as the agonist.
Antibodies produced according to Example 4 were assayed in aggregation for their ability to neutralize (at 60 nM) the GPIIb/IIIa antagonists compound B (5×10^−8 M), compound D (1×10^−7 M), and Merck compound MK383 (5×10^−8 M), as a means of screening which ones recognized the antagonists in a useful manner. The levels of antiplatelet compounds used provided at least 50 percent inhibition of aggregation by themselves. Results are illustrated in FIG. 3.
Collagen-induced platelet aggregation was measured in the presence of 50 nM compound B or 100 nM compound D over 3 minutes in the presence or absence of Mab 9F7 inclusion at 60 nM.

platelet aggregation [8] = details: 20 mg/kg infused into femoral vein of anesthetized dogs; cited from earlier work

Row | Structure (SMILES) | route of removal from circulation [2] | change of elimination half-life with decreased creatinine clearance [2] | IC50 (platelet aggregation [3]) [µg/mL] | effect of compound concentration on activated clotting time [6] | inhibition at 0.05 µM [7] [%] | other results
1 | C#C[C@H](CC(=O)OCC)NC(=O)CCC(=O)Nc1ccc(C(=N)N)cc1.Cl [Compound A, ethyl 3S-[[4-[[4-(aminoiminomethyl)phenyl]-amino]-1,4-dioxobutyl]amino]-4-pentynoate monohydrochloride] | – | – | – | – | – | inhibition of platelet function (platelet aggregation [1]): 54%
2 | C#C[C@H](CC(=O)O)NC(=O)CCC(=O)Nc1ccc(C(=N)N)cc1 [Compound B, 3S-[[4-[[4-(aminoiminomethyl)phenyl]amino]-1,4-dioxobutyl]amino]-4-pentynoic acid] | almost exclusively by the kidney | appreciable increases | 0.027 (≈ 0.0817 µM) | directly affect the activated clotting time | ≥ 50 | half-life [4]: short; levels of total compound B (free plus antibody bound) [5]: increased throughout the three infusions
3 | N=C(N)c1ccc(N2CC[C@H](NC(=O)NCCC(=O)O)C2=O)cc1 [Compound D, 3-[[[[1-[4-(aminoiminomethyl)phenyl]-2-oxo-pyrrolidin-3S-yl]amino]carbonyl]amino]propanoic acid] | almost exclusively by the kidney | appreciable increases | 0.043 (≈ 0.129 µM) | directly affect the activated clotting time | – | inhibition at 0.1 µM ([7]; 1×10^−7 M): ≥ 50%
4 | CC[C@H]1NC(=O)c2cccc(c2)CNC(=O)[C@H](CC(=O)O)NC(=O)CNC(=O)[C@H](CCCNC(=N)N)N(C)C1=O [DMP728, cyclic [D-2-aminobutyryl-N2-methyl-L-arginyl-glycyl-L-aspartyl-3-aminomethyl-benzoic acid] methanesulfonic acid salt] (cyclo([NMeR]GD[3Amb][dAbu])) | – | – | – | – | – | duration of inhibition of platelet aggregation (platelet aggregation [8]): up to 210 minutes; inhibition of platelet aggregation, measured ex vivo (platelet aggregation [8]): nearly complete inhibition
5 | CCCCS(=O)(=O)N[C@@H](Cc1ccc(OCCCCC2CCNCC2)cc1)C(=O)O [MK383, N-(butylsulfonyl)-0-(4-(4-piperidinyl)butyl)-L-tyrosine, monohydrochloride, reference compound] | – | – | – | – | ≥ 50 | –
